The text below walks through data of US20240158418A1 (C4 Therapeutics, Inc., priority 2021, published 2024).

Molecules are shown by their SMILES. Read-outs that look alike come from different tables or passages of the source.

The target in test [1] is EGFR L858R (Homo sapiens, UniProt P00533, L858R). Briefly: EGFR degradation, Total EGFR (L858R-specific) HTRF, NCI-H3255. Format: cell-based. Set-up: NCI-H3255 (harboring EGFR heterozygous L858R mutation); host or cells: NCI-H3255. Particulars: NCI-H3255 cells, 6 hours, Total EGFR HTRF, read-out: H3255 EGFR DC50. In a few lines:
(§1)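 Cells in RPMI 1640 + 10% FBS treated 6 h at 37°C with compound, 11-point half-log titration from 10 μM top, in duplicate. pY1068 and total EGFR read by HTRF (pan-EGFR antibody for wild-type A431; L858R-specific for mutants); IC50 for phospho inhibition, DC50 for 50% degradation.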
(TR-FRET usually uses a lanthanide donor and a delayed reading to cut background.)

Test [2] deals with T1, EGFR L858R-T790M (Homo sapiens, UniProt P00533, L858R/T790M).
T1 construct: NCI-H1975 (harboring EGFR heterozygous L858R-T790M mutations); host or cells: NCI-H1975
Kind of test: EGFR degradation, Total EGFR (L858R-specific) HTRF, NCI-H1975. Format: cell-based. Particulars: NCI-H1975 cells, 6 hours, Total EGFR HTRF, read-out: H1975 EGFR DC50. In a few lines:
as §1

Sequence of EGFR L858R (P00533 25-1210 L858R): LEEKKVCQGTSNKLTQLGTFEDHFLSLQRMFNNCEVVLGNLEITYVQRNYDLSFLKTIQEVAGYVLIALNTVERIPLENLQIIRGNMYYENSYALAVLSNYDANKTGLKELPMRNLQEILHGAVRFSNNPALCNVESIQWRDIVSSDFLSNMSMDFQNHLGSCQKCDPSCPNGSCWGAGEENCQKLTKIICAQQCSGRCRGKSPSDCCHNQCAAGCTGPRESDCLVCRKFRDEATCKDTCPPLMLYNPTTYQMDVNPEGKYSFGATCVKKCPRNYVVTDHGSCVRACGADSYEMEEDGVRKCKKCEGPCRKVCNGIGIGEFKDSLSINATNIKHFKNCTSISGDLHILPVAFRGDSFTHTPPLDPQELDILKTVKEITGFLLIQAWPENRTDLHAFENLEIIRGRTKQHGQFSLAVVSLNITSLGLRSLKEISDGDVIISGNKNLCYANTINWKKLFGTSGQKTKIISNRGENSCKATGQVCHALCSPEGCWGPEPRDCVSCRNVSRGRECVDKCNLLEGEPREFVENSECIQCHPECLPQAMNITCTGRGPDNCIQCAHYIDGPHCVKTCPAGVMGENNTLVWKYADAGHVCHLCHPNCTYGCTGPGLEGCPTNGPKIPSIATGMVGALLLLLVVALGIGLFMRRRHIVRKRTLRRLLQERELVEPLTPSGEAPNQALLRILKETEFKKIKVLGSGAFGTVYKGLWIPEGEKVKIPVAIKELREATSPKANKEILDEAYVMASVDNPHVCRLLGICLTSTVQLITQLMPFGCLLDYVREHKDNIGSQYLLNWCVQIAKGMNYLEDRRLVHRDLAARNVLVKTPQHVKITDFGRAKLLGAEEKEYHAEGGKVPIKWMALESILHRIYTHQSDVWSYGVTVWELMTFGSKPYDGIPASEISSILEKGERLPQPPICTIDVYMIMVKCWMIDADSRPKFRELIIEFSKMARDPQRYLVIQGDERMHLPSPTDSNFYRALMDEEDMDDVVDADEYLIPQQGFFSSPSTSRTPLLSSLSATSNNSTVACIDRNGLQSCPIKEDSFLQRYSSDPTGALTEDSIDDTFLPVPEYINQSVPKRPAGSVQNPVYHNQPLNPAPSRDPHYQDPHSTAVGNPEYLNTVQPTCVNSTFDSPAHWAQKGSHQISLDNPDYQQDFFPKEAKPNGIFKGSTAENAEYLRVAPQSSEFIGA
T1 sequence (P00533 25-1210 T790M/L858R): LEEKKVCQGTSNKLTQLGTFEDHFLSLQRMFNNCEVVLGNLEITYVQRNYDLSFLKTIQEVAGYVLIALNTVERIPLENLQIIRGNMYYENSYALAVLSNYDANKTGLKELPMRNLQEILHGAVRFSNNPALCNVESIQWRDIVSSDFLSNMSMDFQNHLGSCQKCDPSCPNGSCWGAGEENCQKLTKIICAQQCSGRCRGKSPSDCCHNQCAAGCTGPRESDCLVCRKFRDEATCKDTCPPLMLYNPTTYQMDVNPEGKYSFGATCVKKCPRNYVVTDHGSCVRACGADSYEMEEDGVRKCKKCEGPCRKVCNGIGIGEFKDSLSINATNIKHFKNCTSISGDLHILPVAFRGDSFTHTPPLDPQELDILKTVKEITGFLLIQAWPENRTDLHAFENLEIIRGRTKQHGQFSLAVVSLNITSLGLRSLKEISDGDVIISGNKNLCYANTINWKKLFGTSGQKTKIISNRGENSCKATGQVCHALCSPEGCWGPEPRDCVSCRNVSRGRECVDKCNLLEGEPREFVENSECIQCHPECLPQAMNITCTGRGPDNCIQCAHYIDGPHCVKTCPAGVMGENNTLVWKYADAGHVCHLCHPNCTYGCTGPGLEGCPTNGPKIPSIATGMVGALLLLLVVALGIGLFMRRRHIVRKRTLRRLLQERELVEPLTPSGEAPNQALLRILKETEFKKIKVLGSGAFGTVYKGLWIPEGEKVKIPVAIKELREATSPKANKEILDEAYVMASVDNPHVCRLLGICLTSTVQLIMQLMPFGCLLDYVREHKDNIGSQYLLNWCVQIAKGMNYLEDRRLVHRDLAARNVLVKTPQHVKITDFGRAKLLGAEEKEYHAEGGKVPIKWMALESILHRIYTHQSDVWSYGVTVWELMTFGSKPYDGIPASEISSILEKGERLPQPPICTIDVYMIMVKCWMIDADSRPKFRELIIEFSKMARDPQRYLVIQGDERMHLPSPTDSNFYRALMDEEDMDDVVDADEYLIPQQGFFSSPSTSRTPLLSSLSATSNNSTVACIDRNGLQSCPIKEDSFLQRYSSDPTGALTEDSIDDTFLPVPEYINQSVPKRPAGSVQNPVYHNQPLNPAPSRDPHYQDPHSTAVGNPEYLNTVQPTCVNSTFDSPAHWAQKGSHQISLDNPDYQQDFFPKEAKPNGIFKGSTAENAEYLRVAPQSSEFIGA

As usually defined, the DC50 is the midpoint of the concentration-degradation curve. On to `O=C1CC[C@H](Nc2ccc(C3CCN(CC(=O)N4CCC(n5cc(-c6cc(F)c7c(c6)C(=O)N(C(C(=O)Nc6nccs6)c6ncn8c6CCC8)C7)nn5)CC4)CC3)cc2)C(=O)N1` (stereo partly drawn) [Compound 30, 2-(6,7-Dihydro-5H-pyrrolo[1,2-c]imidazol-1-yl)-2-(6-(1-(1-(2-(4-(4-(((S)-2,6-dioxopiperidin-3-yl)amino)phenyl)piperidin-1-yl)acetyl)piperidin-4-yl)-1H-1,2,3-triazol-4-yl)-4-fluoro-1-oxoisoindolin-2-yl)-N-(thiazol-2-yl)acetamide], for which the half-maximal degradation concentration (DC50) in test [1] (Table 9A) and in test [2] (Table 9A) was below 50 nM each time.
As for `O=C1CC[C@H](Nc2ccc(C3CCN(CC(=O)N4CCCN(c5ccc(-c6cc(F)c7c(c6)C(=O)N(C(C(=O)Nc6nccs6)c6ncn8c6CCC8)C7)cc5)CC4)CC3)c(F)c2)C(=O)N1` (stereo partly drawn) [Compound 84, 2-(6,7-dihydro-5H-pyrrolo[1,2-c]imidazol-1-yl)-2-(6-(4-(4-(2-(4-(4-(((S)-2,6-dioxopiperidin-3-yl)amino)-2-fluorophenyl)piperidin-1-yl)acetyl)-1,4-diazepan-1-yl)phenyl)-4-fluoro-1-oxoisoindolin-2-yl)-N-(thiazol-2-yl)acetamide], the DC50 in test [1] (Table 9B) and in test [2] (Table 9B) was 50 to 150 nM throughout.
As to `O=C1CC[C@H](Nc2ccc(C3CCN(CC(=O)N4CC5(CCN(c6ccc(-c7cc(F)c8c(c7)C(=O)N(C(C(=O)Nc7nccs7)c7ncn9c7CCC9)C8)cc6)CC5)C4)CC3)c(F)c2)C(=O)N1` (stereo partly drawn) [Compound 46, 2-(6,7-dihydro-5H-pyrrolo[1,2-c]imidazol-1-yl)-2-(6-(4-(2-(2-(4-(4-(((S)-2,6-dioxopiperidin-3-yl)amino)-2-fluorophenyl)piperidin-1-yl)acetyl)-2,7-diazaspiro[3.5]nonan-7-yl)phenyl)-4-fluoro-1-oxoisoindolin-2-yl)-N-(thiazol-2-yl)acetamide], the DC50 in test [1] (Table 9A) and in test [2] (Table 9A) was 50 to 150 nM throughout.
